Measured values: patent US20250018014A1, “METHOD FOR TREATING AND/OR PREVENTING REGNASE-1-RELATED DISEASE” (OSAKA UNIVERSITY, priority 2018, published 2025)
Residues, ends and D or L forms follow the SMILES beside them.

target: T1, FL_Reg1 (Homo sapiens, UniProt Q5D1E8); test: Binding of Regnase-1 and peptide compounds (affinity mass analysis, SEC then LC/MS); settings: 1 μM FL_Reg1, final compound concentration 1 μM, 23° C. for one hour
T1 construct: made in house; host or cells: Expi293 cells
T1 sequence (Q5D1E8 1-599): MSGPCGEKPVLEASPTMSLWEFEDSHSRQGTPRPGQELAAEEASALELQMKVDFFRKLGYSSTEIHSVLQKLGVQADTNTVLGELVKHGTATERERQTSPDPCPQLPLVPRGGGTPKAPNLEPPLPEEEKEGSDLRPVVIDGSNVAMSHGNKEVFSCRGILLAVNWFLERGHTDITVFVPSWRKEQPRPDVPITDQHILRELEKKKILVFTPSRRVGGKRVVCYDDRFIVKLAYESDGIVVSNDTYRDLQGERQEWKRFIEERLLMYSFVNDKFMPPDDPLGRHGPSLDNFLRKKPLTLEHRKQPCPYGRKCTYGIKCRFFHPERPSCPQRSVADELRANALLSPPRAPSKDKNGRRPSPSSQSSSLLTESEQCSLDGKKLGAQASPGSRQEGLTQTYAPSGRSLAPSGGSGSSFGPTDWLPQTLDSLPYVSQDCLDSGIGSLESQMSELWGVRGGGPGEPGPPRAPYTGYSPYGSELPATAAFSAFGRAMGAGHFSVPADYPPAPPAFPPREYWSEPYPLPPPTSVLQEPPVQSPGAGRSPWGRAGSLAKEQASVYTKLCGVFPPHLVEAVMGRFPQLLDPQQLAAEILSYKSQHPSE
Experimental: To a 96 PP plate (Greiner bio-one, 651201) coated with lipidure (Lipidure-CM5206) (NOF CORPORATION, 71S42000001), 2 μL of Tris-Buffer (25 mM Tris-NaOH pH 8.3, 300 mM NaCl, 1 mM DTT, 1 mM EDTA, 1% DMSO) was dispensed, and then 1 mM DMSO sample was added at 20 nL each with a LABCYTE ECHO (registered trademark) acoustic dispensing system. Furthermore, 18 μL of protein prepared at 1 μM FL_Reg1 in advance using Tris-Buffer was added (final compound concentration: 1 μM), and the mixture was incubated in the dark at 23° C. for one hour. Then, to a 96-well, 400 μL, Hydrophilic PVDF 0.45 μm, Long drip (Harvard, 74-5556), 100 μL of P-2, Fine (Bio-Rad, 1504114) which had been swollen in advance was added, and conditioning was performed by centrifuging several times at 2000× G for two minutes using the buffer. Next, 20 μL of the sample after incubation was added to the conditioned 96-well, 400 μL, Hydrophilic PVDF 0.45 μm, Long drip, and SEC treatment was performed by centrifugation at 2000×G for two minutes. To the liquid from SEC, 32 μL of acetonitrile (LC/MS grade, FUJIFILM Wako Pure Chemical Industries, Ltd.) supplemented with 0.1% formic acid (LC/MS grade, 067-04531, FUJIFILM Wako Pure Chemical Industries, Ltd.) was added, and this was centrifuged at 1800×G for five minutes, and the supernatant was used as an analysis sample for LC/MS measurement. Binding to Regnase-1 was detected for all of the peptide compounds, PP1 to PP25.

Compound	AS-MS ratio(%)
CC[C@H](C)[C@@H]1NC(=O)[C@H](CCCNC(=N)N)NC(=O)[C@H](Cc2ccc(O)cc2)NC(=O)[C@H](Cc2c[nH]c3ccccc23)NC(=O)[C@H](CO)NC(=O)[C@H](CC(N)=O)NC(=O)[C@H](C)N(C)C(=O)C[C@@H](C(=O)N2CCCC2)NC(=O)[C@H](CC(C)C)NC(=O)CNC(=O)[C@H](Cc2c[nH]c3ccccc23)NC1=O [PP22] (HELM PEPTIDE1{[meA].N.S.W.Y.R.I.W.G.L.D.[C1CCN([*:1])C1]}$PEPTIDE1,PEPTIDE1,1:R1-11:R3$$$V2.0)	14.5
CC[C@H](C)[C@@H]1NC(=O)[C@H](CC(N)=O)NC(=O)[C@H]([C@@H](C)CC)NC(=O)[C@H](Cc2ccc(O)cc2)NC(=O)[C@H](Cc2c[nH]c3ccccc23)NC(=O)[C@H](CO)NC(=O)[C@H](CC(N)=O)NC(=O)[C@H](C)N(C)C(=O)C[C@@H](C(=O)N2CCCC2)NC(=O)[C@H](Cc2c[nH]cn2)NC(=O)CNC(=O)[C@H](Cc2c[nH]c3ccccc23)NC1=O [PP15] (HELM PEPTIDE1{[meA].N.S.W.Y.I.N.I.W.G.H.D.[C1CCN([*:1])C1]}$PEPTIDE1,PEPTIDE1,1:R1-12:R3$$$V2.0)	66.7
CC[C@H](C)[C@@H]1NC(=O)[C@H](CO)NC(=O)[C@H](CCCNC(=N)N)NC(=O)[C@H](Cc2ccc(O)cc2)NC(=O)[C@H](Cc2ccc(O)cc2)NC(=O)[C@H](Cc2c[nH]c3ccccc23)NC(=O)[C@H](CO)NC(=O)[C@H](CCC(N)=O)NC(=O)[C@H](Cc2ccc(O)cc2)NC(=O)[C@H](CC(N)=O)NC(=O)[C@H](C)N(C)C(=O)C[C@@H](C(=O)N2CCCC2)NC(=O)[C@H](Cc2c[nH]c3ccccc23)NC1=O [PP10] (HELM PEPTIDE1{[meA].N.Y.Q.S.W.Y.Y.R.S.I.W.D.[C1CCN([*:1])C1]}$PEPTIDE1,PEPTIDE1,1:R1-13:R3$$$V2.0)	3.7
CC[C@H](C)[C@@H]1NC(=O)[C@H](CC(N)=O)NC(=O)[C@H](Cc2ccc(O)cc2)NC(=O)[C@H](Cc2c[nH]c3ccccc23)NC(=O)[C@H](CO)NC(=O)[C@H](CC(N)=O)NC(=O)[C@H](CO)NC(=O)[C@H](Cc2ccccc2)NC(=O)[C@H](CC(N)=O)NC(=O)[C@H](C)N(C)C(=O)C[C@@H](C(=O)N2CCCC2)NC(=O)[C@H](Cc2c[nH]c3ccccc23)NC1=O [PP16] (HELM PEPTIDE1{[meA].N.F.S.N.S.W.Y.N.I.W.D.[C1CCN([*:1])C1]}$PEPTIDE1,PEPTIDE1,1:R1-12:R3$$$V2.0)	17.9
CC[C@H](C)[C@@H]1NC(=O)[C@H](CCCCN)NC(=O)[C@H](Cc2ccc(O)cc2)NC(=O)[C@H](Cc2c[nH]c3ccccc23)NC(=O)[C@H](CO)NC(=O)[C@H](CC(N)=O)NC(=O)[C@H](C)N(C)C(=O)C[C@@H](C(=O)N2CCCC2)NC(=O)[C@H](CC(C)C)NC(=O)CNC(=O)[C@H](Cc2c[nH]c3ccccc23)NC1=O [PP21] (HELM PEPTIDE1{[meA].N.S.W.Y.K.I.W.G.L.D.[C1CCN([*:1])C1]}$PEPTIDE1,PEPTIDE1,1:R1-11:R3$$$V2.0)	15.1
